The values below come from patent US9663525B2, “Pyrazolopyrimidinyl inhibitors of ubiquitin-activating enzyme” (Millennium Pharmaceuticals, Inc., priority 2012, dated 2017).

The target of the experiment is recombinant human UAE (Homo sapiens (Human), UniProt P22314). Description: Ubiquitin Activating Enzyme (UAE) HTRF assay, human UAE. Background: Time-resolved FRET reads energy transfer from a long-lived donor to a nearby acceptor.
Sequence of recombinant human UAE (P22314 whole entry): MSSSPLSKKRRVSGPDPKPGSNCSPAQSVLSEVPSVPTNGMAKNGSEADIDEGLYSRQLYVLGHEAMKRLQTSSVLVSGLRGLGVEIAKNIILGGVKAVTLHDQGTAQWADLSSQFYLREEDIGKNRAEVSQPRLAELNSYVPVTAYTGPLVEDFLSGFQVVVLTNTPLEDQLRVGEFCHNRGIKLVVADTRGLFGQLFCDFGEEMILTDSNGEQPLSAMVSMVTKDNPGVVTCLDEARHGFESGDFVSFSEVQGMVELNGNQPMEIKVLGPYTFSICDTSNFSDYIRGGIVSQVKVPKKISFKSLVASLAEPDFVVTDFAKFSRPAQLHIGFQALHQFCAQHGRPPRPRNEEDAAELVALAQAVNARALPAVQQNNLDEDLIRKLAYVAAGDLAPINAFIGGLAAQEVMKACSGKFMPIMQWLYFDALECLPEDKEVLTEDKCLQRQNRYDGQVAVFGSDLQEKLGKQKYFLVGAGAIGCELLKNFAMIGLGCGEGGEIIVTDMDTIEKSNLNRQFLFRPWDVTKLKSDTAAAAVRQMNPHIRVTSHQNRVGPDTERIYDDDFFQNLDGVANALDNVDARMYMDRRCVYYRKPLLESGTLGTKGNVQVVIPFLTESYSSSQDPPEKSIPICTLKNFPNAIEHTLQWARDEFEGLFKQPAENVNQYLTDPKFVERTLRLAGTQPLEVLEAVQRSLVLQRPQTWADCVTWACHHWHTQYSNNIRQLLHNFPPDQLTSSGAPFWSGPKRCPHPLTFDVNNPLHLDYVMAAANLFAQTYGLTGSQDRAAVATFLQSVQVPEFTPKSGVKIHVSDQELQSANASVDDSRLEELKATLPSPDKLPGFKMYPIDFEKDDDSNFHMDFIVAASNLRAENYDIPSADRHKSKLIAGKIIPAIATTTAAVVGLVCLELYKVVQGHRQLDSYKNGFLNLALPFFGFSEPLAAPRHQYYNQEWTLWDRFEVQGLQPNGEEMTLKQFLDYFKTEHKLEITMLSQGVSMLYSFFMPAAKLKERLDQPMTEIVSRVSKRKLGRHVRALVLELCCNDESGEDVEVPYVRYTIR

Description: After incubation for 120 minutes, quantification of the FRET is performed on the Pherostar (BMG).
For compounds whose values are marked with an asterisk (*), mouse UAE was used. For all other compounds, human UAE was used.

Usually IC50 stands for the concentration needed to halve the response being measured. On to `NS(=O)(=O)OC[C@H]1C[C@@H](Nc2ccnc3cc(-c4cccc5[nH]ccc45)nn23)[C@H](O)[C@@H]1O` (racemic) [Compound I-075, (rac)-((1R,2R,3S,4R)-4-(2-(1H-indol-4-yl)pyrazolo[1,5-a]pyrimidin-7-ylamino)-2,3-dihydroxycyclopentyl)methyl rel-sulfamate], for which the IC50 was less than 10 nM.

As for `NS(=O)(=O)OC[C@H]1C[C@@H](Nc2ccnc3cc(-c4cccc(N5CCCCC5)c4)nn23)[C@H](O)[C@@H]1O` (racemic) [Compound I-077, (rac)-((1R,2R,3S,4R)-2,3-dihydroxy-4-(2-(3-(piperidin-1-yl)phenyl)pyrazolo[1,5-a]pyrimidin-7-ylamino)cyclopentyl)methyl rel-sulfamate], the IC50 is less than 10 nM. Under `NS(=O)(=O)OC[C@H]1C[C@@H](Nc2ccnc3cc(-c4cccc(N5CCOCC5)c4)nn23)[C@H](O)[C@@H]1O` (racemic) [Compound I-078, (rac)-((1R,2R,3S,4R)-2,3-dihydroxy-4-(2-(3-morpholinophenyl)pyrazolo-[1,5-a]pyrimidin-7-ylamino)cyclopentyl)methyl rel-sulfamate] stands less than 10 nM; under `NS(=O)(=O)OC[C@H]1C[C@@H](Nc2ccnc3cc(-c4ccccc4SC(F)(F)F)nn23)[C@H](O)[C@@H]1O` (racemic) [Compound I-079, (rac)-((1R,2R,3S,4R)-2,3-dihydroxy-4-(2-(2-(trifluoromethylthio)phenyl)pyrazolo[1,5-a]pyrimidin-7-ylamino)cyclopentyl)methyl rel-sulfamate], 10 to 100 nM; under `NS(=O)(=O)OC[C@H]1C[C@@H](Nc2ccnc3cc(-c4ccc(SC(F)(F)F)cc4)nn23)[C@H](O)[C@@H]1O` (racemic) [Compound I-080, (rac)-((1R,2R,3S,4R)-2,3-dihydroxy-4-(2-(4-(trifluoromethylthio)phenyl)pyrazolo[1,5-a]pyrimidin-7-ylamino)cyclopentyl)methyl rel-sulfamate], 10 to 100 nM. Under `NS(=O)(=O)OC[C@H]1C[C@@H](Nc2ccnc3cc(-c4csc5ccc(F)cc45)nn23)[C@H](O)[C@@H]1O` (racemic) [Compound I-081, (rac)-((1R,2R,3S,4R)-4-(2-(5-fluorobenzo[b]thiophen-3-yl)pyrazolo[1,5-a]pyrimidin-7-ylamino)-2,3-dihydroxycyclopentyl)methyl rel-sulfamate] stands less than 10 nM. For the compound `C#Cc1cccc(-c2cc3nccc(N[C@@H]4C[C@H](COS(N)(=O)=O)[C@@H](O)[C@H]4O)n3n2)c1` (racemic) [Compound I-083, (rac)-[(1R,2R,3S,4R)-4-{[2-(3-ethynylphenyl)pyrazolo[1,5-a]pyrimidin-7-yl]amino}-2,3-dihydroxycyclopentyl]methyl rel-sulfamate], the IC50 is less than 10 nM. Under `CCOC(C)(C)c1cccc(-c2cc3nccc(N[C@@H]4C[C@H](COS(N)(=O)=O)[C@@H](O)[C@H]4O)n3n2)c1` (racemic) [Compound I-084, (rac)-((1R,2R,3S,4R)-4-(2-(3-(2-ethoxypropan-2-yl)phenyl)pyrazolo[1,5-a]pyrimidin-7-ylamino)-2,3-dihydroxycyclopentyl)methyl rel-sulfamate] stands less than 10 nM; under `NS(=O)(=O)OC[C@H]1C[C@@H](Nc2ccnc3cc(-c4ccc5c(c4)C(=O)c4ccccc4-5)nn23)[C@H](O)[C@@H]1O` (racemic) [Compound I-085, (rac)-((1R,2R,3S,4R)-2,3-dihydroxy-4-(2-(9-oxo-9H-fluoren-2-yl)pyrazolo[1,5-a]pyrimidin-7-ylamino)cyclopentyl)methyl rel-sulfamate], less than 10 nM; under `NS(=O)(=O)OC[C@H]1C[C@@H](Nc2ccnc3cc(-c4cc5ccccc5o4)nn23)[C@H](O)[C@@H]1O` (racemic) [Compound I-086, (rac)-((1R,2R,3S,4R)-4-(2-(benzofuran-2-yl)pyrazolo[1,5-a]pyrimidin-7-ylamino)-2,3-dihydroxycyclopentyl)methyl rel-sulfamate], less than 10 nM.

As to `NS(=O)(=O)OC[C@H]1C[C@@H](Nc2ccnc3cc(-c4cccc(N5CCCC5=O)c4)nn23)[C@H](O)[C@@H]1O` (racemic) [Compound I-087, (rac)-((1R,2R,3S,4R)-2,3-dihydroxy-4-(2-(3-(2-oxopyrrolidin-1-yl)phenyl)pyrazolo[1,5-a]pyrimidin-7-ylamino)cyclopentyl)methyl rel-sulfamate], the IC50 was less than 10 nM.

In the case of `NS(=O)(=O)OC[C@H]1C[C@@H](Nc2ccnc3cc(-c4cc5ccc(Cl)cc5s4)nn23)[C@H](O)[C@@H]1O` (racemic) [Compound I-088, (rac)-((1R,2R,3S,4R)-4-(2-(6-chlorobenzo[b]thiophen-2-yl)pyrazolo[1,5-a]pyrimidin-7-ylamino)-2,3-dihydroxycyclopentyl)methyl rel-sulfamate], the IC50 is 10 to 100 nM. As to `CCCOC(C)(C)c1cccc(-c2cc3nccc(N[C@@H]4C[C@H](COS(N)(=O)=O)[C@@H](O)[C@H]4O)n3n2)c1` (racemic) [Compound I-090, (rac)-((1R,2R,3S,4R)-2,3-dihydroxy-4-(2-(3-(2-propoxypropan-2-yl)phenyl)pyrazolo[1,5-a]pyrimidin-7-ylamino)cyclopentyl)methyl rel-sulfamate], the IC50 is less than 10 nM. With `NS(=O)(=O)OC[C@H]1C[C@@H](Nc2ccnc3cc(-c4coc5ccc(Cl)cc45)nn23)[C@H](O)[C@@H]1O` (racemic) [Compound I-092, (rac)-((1R,2R,3S,4R)-4-(2-(5-chlorobenzofuran-3-yl)pyrazolo[1,5-a]pyrimidin-7-ylamino)-2,3-dihydroxycyclopentyl)methyl rel-sulfamate], the IC50 is less than 10 nM.

Turning to `NS(=O)(=O)OC[C@H]1C[C@@H](Nc2ccnc3cc(-c4ccc5c(c4)oc4ccccc45)nn23)[C@H](O)[C@@H]1O` (racemic) [Compound I-093, (rac)-((1R,2R,3S,4R)-4-(2-(dibenzo[b,d]furan-3-yl)pyrazolo[1,5-a]pyrimidin-7-ylamino)-2,3-dihydroxycyclopentyl)methyl rel-sulfamate], the half-maximal inhibitory concentration (IC50) is less than 10 nM. For the compound `CCc1ccc2sc(-c3cc4nccc(N[C@@H]5C[C@H](COS(N)(=O)=O)[C@@H](O)[C@H]5O)n4n3)cc2c1` (racemic) [Compound I-095, (rac)-((1R,2R,3S,4R)-4-(2-(5-ethylbenzo[b]thiophen-2-yl)pyrazolo[1,5-a]pyrimidin-7-ylamino)-2,3-dihydroxycyclopentyl)methyl rel-sulfamate], the IC50 fell in the range of 10 to 100 nM.

For `NS(=O)(=O)OC[C@H]1C[C@@H](Nc2ccnc3cc(-c4cncc(-c5ccccc5)n4)nn23)[C@H](O)[C@@H]1O` (racemic) [Compound I-121, (rac)-((1R,2R,3S,4R)-2,3-dihydroxy-4-{[2-(6-phenylpyrazin-2-yl)pyrazolo[1,5-a]pyrimidin-7-yl]amino}cyclopentyl)methyl rel-sulfamate], the half-maximal inhibitory concentration (IC50) was less than 10 nM.

In the case of `Cn1cc(-c2cccc(-c3cc4nccc(N[C@@H]5C[C@H](COS(N)(=O)=O)[C@@H](O)[C@H]5O)n4n3)c2)cn1` (racemic) [Compound I-122, (rac)-[(1R,2R,3S,4R)-2,3-dihydroxy-4-({2-[3-(1-methyl-1H-pyrazol-4-yl)phenyl]pyrazolo[1,5-a]pyrimidin-7-yl}amino)cyclopentyl]methyl rel-sulfamate], the IC50 is less than 10 nM.
